In publication PMC12897534, “Design, synthesis, and antiproliferative activity of new 5-ethylsulfonyl-indazole-3-carbohydrazides as dual EGFR/VEGFR-2 kinases inhibitors” (Journal of Enzyme Inhibition and Medicinal Chemistry, 2025):
Several values for one entry are separate records, joined by “and”; a condition that tells them apart may be missing. Equal values may be shown once.

Experiments:
[1] = test system: A-549 (lung) cancer cell line; assay: Antiproliferative assay, A-549; type: cell-based, human; conditions: Homo sapiens, A549; read-out: Antiproliferative activity IC50 ± SEM, A-549
Description: (§1) Table 1 presents the median inhibitory concentration (IC50) and GI50 (mean IC50) for the four cancer cell lines.
(§2) Refer to Appendix A for additional information.
(§3) To explore the antiproliferative potential of compounds propidium iodide fluorescence assay was performed using different cell lines such as Panc-1 (pancreas cancer cell line) [Panc-1-CTC (RRID:CVCL_VQ69)], MCF-7 (breast cancer cell line) [MCF-7 (RRID:CVCL_0031)], HT-29 (colon cancer cell line) [HT-29 (RRID:CVCL_0320)] and A-549 (epithelial cancer cell line)[A-549 (RRID:CVCL_0023)], respectively. All cell lines were obtained from ATCC (American Type Cell Culture).
(§4) To calculate the total nuclear DNA, a fluorescent dye (propidium iodide, PI) is used which can attach to the DNA, thus offering a quick and precise technique. PI cannot pass through the cell membrane and its signal intensity can be considered as directly proportional to quantity of cellular DNA. Cells whose cell membranes are damaged or have changed permeability are counted as dead ones. The assay was performed by seeding the cells of different cell lines at a density of 3000-7500 cells/well (in 200 μl medium) in culture plates followed by incubation for 24 h at 37 °C in humidified 5% CO2 /95% air atmospheric conditions. The medium was removed; the compounds were added to the plates at 10 μM concentrations (in 0.1% DMSO) in triplicates, followed by incubation for 48 h. DMSO (0.1%) was used as control. After incubation, medium was removed followed by the addition of PI (25 μl, 50 μg/mL in water/medium) to each well of the plates. At -80 °C, the plates were allowed to freeze for 24 h, followed by thawing at 25 °C. A fluorometer (Polar-Star BMG Tech) was used to record the readings at excitation and emission wavelengths of 530 and 620 nm for each well. The percentage cytotoxicity of compounds was calculated using the following formula: […]

[2] = test system: MCF-7 (breast) cancer cell line; assay: Antiproliferative assay, MCF-7; type: cell-based, human; conditions: Homo sapiens, MCF7; read-out: Antiproliferative activity IC50 ± SEM, MCF-7
Description: as §1, §2, §3, §4

[3] = test system: Panc-1 (pancreatic) cancer cell line; assay: Antiproliferative assay, Panc-1; type: cell-based, human; conditions: Homo sapiens, PANC-1; read-out: Antiproliferative activity IC50 ± SEM, Panc-1
Description: as §1, §2, §3, §4

[4] = test system: HT-29 (colon) cancer cell line; assay: Antiproliferative assay, HT-29; type: cell-based, human; conditions: Homo sapiens, read-out: Antiproliferative activity IC50 ± SEM, HT-29
Description: as §1, §2, §3, §4

[5] = test system: four cancer cell lines (A-549, MCF-7, Panc-1, HT-29); assay: Antiproliferative assay, mean over the four cancer cell lines (GI50); type: cell-based, human; conditions: for IC50: Homo sapiens, mean IC50 of A-549, MCF-7, Panc-1, HT-29
Excerpt: as §1, §2
All cell lines were obtained from ATCC (American Type Cell Culture). […]

EGFR = EGFR (Homo sapiens, UniProt P00533); assay: EGFR-TK inhibitory assay; conditions: EGFR inhibition IC50 ± SEM
Chain of EGFR (P00533 669-1210): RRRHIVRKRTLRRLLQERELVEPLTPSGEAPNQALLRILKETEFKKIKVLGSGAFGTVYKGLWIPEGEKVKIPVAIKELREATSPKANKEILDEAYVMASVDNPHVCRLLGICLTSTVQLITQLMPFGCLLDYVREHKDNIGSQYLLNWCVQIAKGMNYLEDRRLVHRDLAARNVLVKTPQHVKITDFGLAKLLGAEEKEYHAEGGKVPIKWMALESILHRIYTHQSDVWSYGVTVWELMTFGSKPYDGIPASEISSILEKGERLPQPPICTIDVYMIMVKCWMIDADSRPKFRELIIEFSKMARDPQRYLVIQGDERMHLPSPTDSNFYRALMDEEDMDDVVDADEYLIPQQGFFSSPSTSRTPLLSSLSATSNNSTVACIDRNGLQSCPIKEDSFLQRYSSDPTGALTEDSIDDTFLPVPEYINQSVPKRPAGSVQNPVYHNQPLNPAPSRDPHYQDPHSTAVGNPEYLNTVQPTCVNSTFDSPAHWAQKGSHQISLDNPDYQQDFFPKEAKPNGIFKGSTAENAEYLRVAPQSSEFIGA
Description: To record autophosphorylation level, EGFR kinase assay was carried out on the basis of DELFIA/Time-Resolved Fluorometry. […] Each compound (10 μL) was incubated with recombinant enzyme (10 μL, 5 ng for EGFR, 1:80 dilution in 100 mM HEPES) for 10 min at 25 °C, subsequent to the addition of 5X buffer (10 μL, containing 2 mM MnCl2, 100 μM Na3VO4, 20 mM HEPES and 1 mM DTT) and ATP-MgCl2 (20 μL, containing 0.1 mM ATP and 50 mM MgCl2) and incubation for 1h. The negative and positive controls were included in each plate by the incubation of enzyme either with or without ATP-MgCl2. The liquid was removed after incubation and the plates were washed thrice using a wash buffer. The Europium-tagged antiphosphotyrosine antibody (75 μL, 400 ng) was added to each well followed by incubation of 1h and then washing of the plates using buffer. […] The autophosphorylation percentage inhibition by compounds was calculated using the following equation:
The majority of signals detected by antiphosphotyrosine antibody were from EGFR because the enzyme preparation contained low impurities.

VEGFR-2 = VEGFR-2 (Homo sapiens, UniProt P35968); assay: VEGFR-2 kinase inhibitory assay
Chain of VEGFR-2 (P35968 20-1356): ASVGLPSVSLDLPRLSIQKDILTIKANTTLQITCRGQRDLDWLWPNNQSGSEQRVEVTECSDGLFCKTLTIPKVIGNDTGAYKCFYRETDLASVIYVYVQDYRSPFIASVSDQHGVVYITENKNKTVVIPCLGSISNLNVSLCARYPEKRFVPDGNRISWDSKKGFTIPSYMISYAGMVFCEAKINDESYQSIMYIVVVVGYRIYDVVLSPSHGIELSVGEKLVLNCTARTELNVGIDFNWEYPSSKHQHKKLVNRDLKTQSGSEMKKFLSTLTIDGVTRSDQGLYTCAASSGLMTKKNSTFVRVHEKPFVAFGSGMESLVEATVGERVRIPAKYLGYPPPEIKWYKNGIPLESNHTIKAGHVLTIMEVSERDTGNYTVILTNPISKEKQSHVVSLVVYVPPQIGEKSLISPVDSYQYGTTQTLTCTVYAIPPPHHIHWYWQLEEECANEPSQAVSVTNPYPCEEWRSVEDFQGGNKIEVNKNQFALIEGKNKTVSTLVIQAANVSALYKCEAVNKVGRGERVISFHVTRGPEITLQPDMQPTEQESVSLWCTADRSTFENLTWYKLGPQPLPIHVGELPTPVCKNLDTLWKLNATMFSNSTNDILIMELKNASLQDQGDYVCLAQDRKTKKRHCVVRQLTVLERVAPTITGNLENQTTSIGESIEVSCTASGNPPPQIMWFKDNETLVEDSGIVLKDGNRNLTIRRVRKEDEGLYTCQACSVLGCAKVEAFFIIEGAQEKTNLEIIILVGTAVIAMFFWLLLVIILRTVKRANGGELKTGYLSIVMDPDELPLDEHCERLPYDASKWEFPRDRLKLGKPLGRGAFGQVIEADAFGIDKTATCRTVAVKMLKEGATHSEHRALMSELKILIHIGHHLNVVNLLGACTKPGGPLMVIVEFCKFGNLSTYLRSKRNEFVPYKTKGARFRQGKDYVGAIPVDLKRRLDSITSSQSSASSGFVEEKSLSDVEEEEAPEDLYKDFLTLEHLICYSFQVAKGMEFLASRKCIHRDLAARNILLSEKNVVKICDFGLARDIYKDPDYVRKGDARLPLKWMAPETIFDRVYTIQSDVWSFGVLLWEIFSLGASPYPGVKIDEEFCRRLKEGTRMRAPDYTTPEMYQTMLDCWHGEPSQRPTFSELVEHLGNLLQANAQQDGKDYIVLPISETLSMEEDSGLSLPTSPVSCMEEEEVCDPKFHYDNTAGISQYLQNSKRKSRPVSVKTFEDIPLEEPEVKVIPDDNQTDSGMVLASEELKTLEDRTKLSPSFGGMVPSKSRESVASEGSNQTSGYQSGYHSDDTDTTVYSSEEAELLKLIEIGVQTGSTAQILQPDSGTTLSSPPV
Description: Prepare all the solutions using autoclaved, deionized water and analytical grade reagents. Prepare and store all the reagents at room temperature (unless indicated otherwise). […] The assays used an ULight-labeled peptide substrate and a Europium-W1024-labeled antiphosphotyrosine antibody. The VEGFR-2 was purchased from Carna Biosciences, Inc. (New York, USA). The 384-well plates were obtained from PerkinElmer. […] Negative control: 2.5 μL/well 4×substrate/ATP mixture and 7.5 μL 1×kinase assay buffer in 384-well plate well. […] After incubation at room temperature and dark for 60 min, 5 μL 4×stop solution was added to corresponding wells to react for 5 min and then 5 μL 4×detection mix was added to the corresponding wells of a 384-well plate. The mixture was centrifugally mixed and stayed for 60 min at room temperature for color development. The plate was read using an Envision plate reader. The inhibition rate (%) = (positive well reading-compound well reading)/(positive well reading-negative well reading)×100. The corresponding IC50 values were calculated using GraphPad Prism 5.0.

[6] = Cell viability assay (MTT) on normal cell line; conditions: human, MCF-10A normal mammary gland epithelial cells
Description: The viability of the investigated compounds was assessed using the normal human mammary gland epithelial cell line MCF-10A. After four days of incubation on MCF-10A cells with 50 µM of each examined compound, cell viability was assessed using the MTT test[46]^,[47].
The viability of 7a–o was determined using the normal human mammary gland epithelial (MCF-10A) cell line^46,[47].
MTT assay was performed to investigate the effect of the synthesized compounds on mammary epithelial cells (MCF-10A). The cells were propagated in medium consisting of Ham's F-12 medium/ Dulbecco's modified Eagle's medium (DMEM) (1:1) supplemented with 10% foetal calf serum (GIBCO, UK), 2 mM glutamine, insulin (10 μg/mL), hydrocortisone (500 ng/mL) and epidermal growth factor (20 ng/mL). Trypsin ethylenediamine tetra acetic acid (EDTA) was used to passage the cells after every 2-3 days. 96-well flat-bottomed cell culture plates were used to seed the cells at a density of 10^4 cells mL^-1. The medium was aspirated from all the wells of culture plates after 24 h followed by the addition of synthesized compounds (in 200 μL medium to yield a final concentration of 0.1% (v/v) dimethyl sulfoxide) into individual wells of the plates. Four wells were designated to a single compound. The plates were allowed to incubate at 37°C for 96 h. Afterwards, the medium was aspirated and 3-[4,5-dimethylthiazol-2-yl]-2,5-diphenyltetrazolium bromide (MTT) (0.4 mg/mL) in medium was added to each well and subsequently incubated for 3 h. The medium was aspirated and 150 μL dimethyl sulfoxide (DMSO) was added to each well. The plates were vortexed followed by the measurement of absorbance at 540 nm on a microplate reader.

Row | SMILES | IC50 [1] [nM] | IC50 [2] [nM] | IC50 [3] [nM] | IC50 [4] [nM] | IC50 [5] [nM] | IC50 (EGFR) | IC50 (VEGFR-2) [nM] | Fold less potent than 7 g (GI50) ([5]; GI50 ratio to 7 g) [fold] | Fold less potent than 7i (GI50) ([5]; GI50 ratio to 7i) [fold] | Fold less potent than 7 l (GI50) ([5]; GI50 ratio to 7 l) [fold] | Fold less potent than 7j (GI50) ([5]; GI50 ratio to 7j) [fold] | viability at 96 h, 50 µM [6] [%]
1 | CCS(=O)(=O)c1ccc2[nH]nc(C(=O)N/N=C/c3ccc(OC)c(O)c3)c2c1 [Compound 7g, (E)-5-(ethylsulfonyl)-N′-(3-hydroxy-4-methoxybenzylidene)-1H-indazole-3-carbohydrazide] | 35 ± 2 | 38 ± 2 | 36 ± 2 | 36 ± 2 | 36 | 81 nM and 83 nM | 39 ± 2 |  |  |  |  | 91
2 | CCS(=O)(=O)c1ccc2[nH]nc(C(=O)N/N=C/c3cccnc3)c2c1 [Compound 7b, (E)-5-(ethylsulfonyl)-N′-(pyridin-3-ylmethylene)-1H-indazole-3-carbohydrazide] | 47 ± 3 | 50 ± 4 | 48 ± 3 | 48 ± 3 | 48 |  |  |  |  |  |  | 92
3 | CCS(=O)(=O)c1ccc2[nH]nc(C(=O)N/N=C/c3ccc(O)cc3)c2c1 [Compound 7i, (E)-5-(ethylsulfonyl)-N′-(4-hydroxybenzylidene)-1H-indazole-3-carbohydrazide] | 31 ± 2 | 34 ± 2 | 32 ± 2 | 32 ± 2 | 32 | 83 nM and 81 nM | 36 ± 2 |  |  |  |  | 92
4 | CCS(=O)(=O)c1ccc2[nH]nc(C(=O)N/N=C/c3ccc4c(ccn4C)c3)c2c1 [Compound 7f, (E)-5-(ethylsulfonyl)-N′-((1-methyl-1H-indol-5-yl)methylene)-1H-indazole-3-carbohydrazide] | 71 ± 6 | 75 ± 6 | 73 ± 6 | 72 ± 6 | 73 |  |  |  |  |  |  | 92
5 | CCS(=O)(=O)c1ccc2[nH]nc(C(=O)N/N=C/c3ccc(C#N)cc3)c2c1 [Compound 7a, (E)-N′-(4-Cyanobenzylidene)-5-(ethylsulfonyl)-1H-indazole-3-carbohydrazide] | 77 ± 6 | 79 ± 6 | 77 ± 6 | 78 ± 6 | 78 |  |  | 2.1 | 2.4 | 1.9 |  | 94
6 | CCS(=O)(=O)c1ccc2[nH]nc(C(=O)N/N=C/c3ccc4ncccc4c3)c2c1 [Compound 7d, (E)-5-(ethylsulfonyl)-N′-(quinolin-6-ylmethylene)-1H-indazole-3-carbohydrazide] | 53 ± 4 | 55 ± 4 | 54 ± 4 | 54 ± 4 | 54 |  |  |  |  |  |  | 92
7 | CCS(=O)(=O)c1ccc2[nH]nc(C(=O)N/N=C/c3nccs3)c2c1 [Compound 7e, (E)-5-(ethylsulfonyl)-N′-(thiazol-2-ylmethylene)-1H-indazole-3-carbohydrazide] | 58 ± 4 | 61 ± 5 | 60 ± 5 | 60 ± 5 | 60 |  |  |  |  |  | 2.3 | 94
8 | C#Cc1cccc(Nc2ncnc3cc(OCCOC)c(OCCOC)cc23)c1 [Erlotinib, reference compound] | 30 ± 3 | 40 ± 3 | 30 ± 3 | 30 ± 3 |  |  |  |  |  |  |  | 

Now from value to compound, other results behind:

Row | IC50 [1] [nM] | IC50 [2] [nM] | IC50 [3] [nM] | IC50 [4] [nM] | IC50 [5] [nM] | IC50 (EGFR) | IC50 (VEGFR-2) [nM] | Fold less potent than 7 g (GI50) ([5]; GI50 ratio to 7 g) [fold] | Fold less potent than 7i (GI50) ([5]; GI50 ratio to 7i) [fold] | Fold less potent than 7 l (GI50) ([5]; GI50 ratio to 7 l) [fold] | Fold less potent than 7j (GI50) ([5]; GI50 ratio to 7j) [fold] | SMILES | viability at 96 h, 50 µM [6] [%]
9 | 63 ± 5 | 66 ± 5 | 64 ± 5 | 64 ± 5 | 64 |  |  |  |  |  |  | CCS(=O)(=O)c1ccc2[nH]nc(C(=O)N/N=C/C3CCCC3)c2c1 [Compound 7n, (E)-N′-(cyclopentylmethylene)-5-(ethylsulfonyl)-1H-indazole-3-carbohydrazide] | 90
10 | 56 ± 4 | 59 ± 4 | 58 ± 4 | 58 ± 4 | 58 |  |  |  |  |  |  | CCS(=O)(=O)c1ccc2[nH]nc(C(=O)N/N=C/c3ccc4c(cnn4C)c3)c2c1 [Compound 7c, (E)-5-(ethylsulfonyl)-N′-((1-methyl-1H-indazol-5-yl)methylene)-1H-indazole-3-carbohydrazide] | 91
11 | 49 ± 3 | 52 ± 4 | 50 ± 4 | 50 ± 4 | 50 |  |  |  |  |  |  | CCS(=O)(=O)c1ccc2[nH]nc(C(=O)N/N=C/C3CC3)c2c1 [Compound 7m, (E)-N′-(cyclopropylmethylene)-5-(ethylsulfonyl)-1H-indazole-3-carbohydrazide] | 94
12 | 67 ± 5 | 70 ± 6 | 68 ± 5 | 68 ± 5 | 68 |  |  |  |  |  |  | CCS(=O)(=O)c1ccc2[nH]nc(C(=O)N/N=C/c3cncnc3)c2c1 [Compound 7h, (E)-5-(ethylsulfonyl)-N′-(pyrimidin-5-ylmethylene)-1H-indazole-3-carbohydrazide] | 93
